In ChEMBL document CHEMBL1138383, “2-Arylidenedihydroindole-3-ones: design, synthesis, and biological activity on bladder carcinoma cell lines” (2007) one finds Activity data, which are given here for six molecules.

Each structure is given as a SMILES string.

Assay [1] in a line: Effect on viability of DAG1 cells with FGFR3 S249C mutation at 10 uM after 72 hrs. In kind it is functional, Homo sapiens.
For assay [2], the system named is RT-112. In words: Effect on viability of RT112 cells overexpressing wild-type FGFR3 at 10 uM after 72 hrs. It is filed as functional, Homo sapiens.
For assay [3], the system named is J82. In words: Effect on viability of J82 cells with FGFR3 K650E mutation at 10 uM after 72 hrs. In kind it is functional, Homo sapiens.
Assay [4] in a line: Induction of apoptosis in DAG1 cells with FGFR3 S249C mutation at 10 uM after 48 hrs by flow cytometry. It is filed as functional, Homo sapiens. In general terms: Flow cytometry measures light scatter and fluorescence of single cells or particles in a stream.
Assay [5] concerns RT-112. In words: Induction of apoptosis in RT112 cells overexpressing wild-type FGFR3 at 10 uM after 48 hrs by flow cytometry. It is filed as functional, Homo sapiens.
The subject of assay [6] is J82. In words: Induction of apoptosis in J82 cells with FGFR3 K650E mutation at 10 uM after 48 hrs by flow cytometry. It is filed as functional, Homo sapiens.
Assay [7] can be described thus: Decrease in p-Stat5 antigen expression level in DAG1 cells with FGFR3 S249C mutation at 10 uM after 6 hrs by flow cytometry relative to control. It is filed as functional, cell-based. Conditions: Homo sapiens.
A short description of assay [8]: Decrease in p-Pyk2 antigen expression level in DAG1 cells with FGFR3 S249C mutation at 10 uM after 6 hrs by flow cytometry relative to control. In kind it is functional, cell-based. Conditions: Homo sapiens.
For assay [9], the system named is RT-112. In words: Decrease in p-Stat5 antigen expression level in RT112 cells overexpressing wild-type FGFR3 at 10 uM after 6 hrs by flow cytometry relative to control. In kind it is functional, Homo sapiens.
The test system of assay [10] is RT-112. In words: Decrease in p-Pyk2 antigen expression level in RT112 cells overexpressing wild-type FGFR3 at 10 uM after 6 hrs by flow cytometry relative to control. It is filed as functional, Homo sapiens.

With `COc1cc2c(c(OC)c1)C(=O)/C(=C/c1ccccc1F)N2`, the Activity in [1] is listed as 58%; in the assay with RT-112 [2], 48%; with J82 [3], 97%; in [4] it was 86%; with RT-112 [5], 20%; in the assay on J82 [6], 3%. The Activity in assay [7] was 9.5; in [8], 2; with RT-112 [9], 2.5; in the assay with RT-112 [10] it was 1.3.
Turning to `COc1cc2c(c(OC)c1)C(=O)/C(=C/c1[nH]cnc1C)N2`, the results for the Activity (in assay [1]; in the assay on RT-112 [2]; in the assay with J82 [3]) were 89%, 92% and 90%, respectively.
The corresponding values for `COc1cc2c(c(OC)c1)C(=O)/C(=C/c1ccc(Cl)cc1)N2` are 99%, 93% and 94%.
For `COc1cc2c(c(OC)c1)C(=O)/C(=C/c1c(F)cccc1Cl)N2` the same measures were 91%, 93% and 95%.
For `CCc1ccc(/C=C2\Nc3cc(OC)cc(OC)c3C2=O)cc1` the same measures were 98%, 97% and 99%.
Regarding `COc1cc2c(c(OC)c1)C(=O)/C(=C/c1ncc[nH]1)N2`, the Activity came to 90% in assay [1], 92% in the assay on RT-112 [2] and 89% with J82 [3].
